Patent publication US9399904B2, “Oil recovery system and method” (SHELL OIL COMPANY, priority 2013, dated 2016)

Experiment: Dynamic viscosity of crude/dimethyl sulfide blends, closed cup rheometer
Type: physicochemical
Procedure: The quality of dimethyl sulfide as an oil recovery agent based on the crude oil viscosity lowering properties of dimethyl sulfide was evaluated. Three crude oils having widely disparate viscosity characteristics—an African Waxy crude, a Middle Eastern asphaltic crude, and a Canadian asphaltic crude—were blended with dimethyl sulfide.
A control sample of each crude was prepared containing no dimethyl sulfide, and samples of each crude were prepared and blended with dimethyl sulfide to prepare crude samples containing increasing concentrations of dimethyl sulfide. The samples were heated to 60° C. to dissolve any waxes therein and to permit weighing of a homogeneous liquid. The samples were weighed, allowed to cool overnight, then blended with a selected quantity of dimethyl sulfide. The samples of the crude/dimethyl sulfide blend were then heated to 60° C. and mixed to ensure homogeneous blending of the dimethyl sulfide in the samples. Absolute (dynamic) viscosity measurements of each of the samples were taken using a closed cup rheometer using a PZ39 rotor sensor assembly in the rheometer. Viscosity measurements of each of the samples of the West African waxy crude and the Middle Eastern asphaltic crude were taken at 20° C., 40° C., 60° C., 80° C., and then again at 20° C. after cooling from 80° C., where the second measurement at 20° C. is taken to measure the viscosity without the presence of waxes since wax formation occurs slowly enough to permit viscosity measurement at 20° C. without the presence of wax. Viscosity measurements of each of the samples of the Canadian asphaltic crude were taken at 5° C., 10° C., 20° C., 40° C., 60° C., 80° C., The measured viscosities for each of the crudes are shown in Tables 4, 5, and 6 below.

CSC [Dimethyl Sulfide, dimethyl sulfide]
Viscosity of West African Waxy Crude (1.21 wt. % DMS, 20° C.): 125.8 mPa s | Viscosity of West African Waxy Crude (1.21 wt. % DMS, 20° C. after cooling from 80° C.): 100.1 mPa s | Viscosity of West African Waxy Crude (1.21 wt. % DMS, 40° C.): 30.94 mPa s | Viscosity of West African Waxy Crude (1.21 wt. % DMS, 60° C.): 14.66 mPa s | Viscosity of West African Waxy Crude (1.21 wt. % DMS, 80° C.): 8.92 mPa s | Viscosity of Middle Eastern Asphaltic Crude (1.3 wt. % DMS, 20° C.): 1733.8 mPa s | Viscosity of Middle Eastern Asphaltic Crude (1.3 wt. % DMS, 20° C. after cooling from 80° C.): 1624.8 mPa s | Viscosity of Middle Eastern Asphaltic Crude (1.3 wt. % DMS, 40° C.): 334.5 mPa s | Viscosity of Middle Eastern Asphaltic Crude (1.3 wt. % DMS, 60° C.): 106.7 mPa s | Viscosity of Middle Eastern Asphaltic Crude (1.3 wt. % DMS, 80° C.): 44.6 mPa s | Viscosity of Topped Canadian Asphaltic Crude (1.43 wt. % DMS, 20° C.): 212525 mPa s | Viscosity of Topped Canadian Asphaltic Crude (1.43 wt. % DMS, 40° C.): 14721 mPa s | Viscosity of Topped Canadian Asphaltic Crude (1.43 wt. % DMS, 60° C.): 2209 mPa s | Viscosity of Topped Canadian Asphaltic Crude (1.43 wt. % DMS, 80° C.): 538 mPa s | Viscosity of Topped Canadian Asphaltic Crude (2.07 wt. % DMS, 20° C.): 134880 mPa s | Viscosity of Topped Canadian Asphaltic Crude (2.07 wt. % DMS, 40° C.): 10523 mPa s | Viscosity of Topped Canadian Asphaltic Crude (2.07 wt. % DMS, 60° C.): 1747 mPa s | Viscosity of Topped Canadian Asphaltic Crude (2.07 wt. % DMS, 80° C.): 427 mPa s | Viscosity of West African Waxy Crude (2.48 wt. % DMS, 20° C.): 122.3 mPa s | Viscosity of West African Waxy Crude (2.48 wt. % DMS, 20° C. after cooling from 80° C.): 89.23 mPa s | Viscosity of West African Waxy Crude (2.48 wt. % DMS, 40° C.): 30.53 mPa s | Viscosity of West African Waxy Crude (2.48 wt. % DMS, 60° C.): 13.66 mPa s | Viscosity of West African Waxy Crude (2.48 wt. % DMS, 80° C.): 8.44 mPa s | Viscosity of Middle Eastern Asphaltic Crude (2.6 wt. % DMS, 20° C.): 1026.6 mPa s | Viscosity of Middle Eastern Asphaltic Crude (2.6 wt. % DMS, 20° C. after cooling from 80° C.): 881.1 mPa s | Viscosity of Middle Eastern Asphaltic Crude (2.6 wt. % DMS, 40° C.): 219.9 mPa s | Viscosity of Middle Eastern Asphaltic Crude (2.6 wt. % DMS, 60° C.): 76.5 mPa s | Viscosity of Middle Eastern Asphaltic Crude (2.6 wt. % DMS, 80° C.): 34.3 mPa s | Viscosity of Topped Canadian Asphaltic Crude (4.87 wt. % DMS, 20° C.): 28720 mPa s | Viscosity of Topped Canadian Asphaltic Crude (4.87 wt. % DMS, 40° C.): 3235 mPa s | Viscosity of Topped Canadian Asphaltic Crude (4.87 wt. % DMS, 60° C.): 985 mPa s | Viscosity of Topped Canadian Asphaltic Crude (4.87 wt. % DMS, 80° C.): 328 mPa s | Viscosity of West African Waxy Crude (5.03 wt. % DMS, 20° C.): 78.37 mPa s | Viscosity of West African Waxy Crude (5.03 wt. % DMS, 20° C. after cooling from 80° C.): 55.21 mPa s | Viscosity of West African Waxy Crude (5.03 wt. % DMS, 40° C.): 20.24 mPa s | Viscosity of West African Waxy Crude (5.03 wt. % DMS, 60° C.): 10.45 mPa s | Viscosity of West African Waxy Crude (5.03 wt. % DMS, 80° C.): 6.55 mPa s | Viscosity of Middle Eastern Asphaltic Crude (5.3 wt. % DMS, 20° C.): 496.5 mPa s | Viscosity of Middle Eastern Asphaltic Crude (5.3 wt. % DMS, 20° C. after cooling from 80° C.): 503.5 mPa s | Viscosity of Middle Eastern Asphaltic Crude (5.3 wt. % DMS, 40° C.): 134.2 mPa s | Viscosity of Middle Eastern Asphaltic Crude (5.3 wt. % DMS, 60° C.): 52.2 mPa s | Viscosity of Middle Eastern Asphaltic Crude (5.3 wt. % DMS, 80° C.): 25.5 mPa s | Viscosity of Middle Eastern Asphaltic Crude (7.6 wt. % DMS, 20° C.): 288.0 mPa s | Viscosity of West African Waxy Crude (7.60 wt. % DMS, 20° C.): 60.92 mPa s | Viscosity of Middle Eastern Asphaltic Crude (7.6 wt. % DMS, 20° C. after cooling from 80° C.): 290.0 mPa s | Viscosity of West African Waxy Crude (7.60 wt. % DMS, 20° C. after cooling from 80° C.): 40.89 mPa s | Viscosity of Middle Eastern Asphaltic Crude (7.6 wt. % DMS, 40° C.): 89.4 mPa s | Viscosity of West African Waxy Crude (7.60 wt. % DMS, 40° C.): 17.08 mPa s | Viscosity of Middle Eastern Asphaltic Crude (7.6 wt. % DMS, 60° C.): 37.4 mPa s | Viscosity of West African Waxy Crude (7.60 wt. % DMS, 60° C.): 9.29 mPa s | Viscosity of Middle Eastern Asphaltic Crude (7.6 wt. % DMS, 80° C.): 19.3 mPa s | Viscosity of West African Waxy Crude (7.60 wt. % DMS, 80° C.): 6.09 mPa s | Viscosity of Topped Canadian Asphaltic Crude (8.01 wt. % DMS, 20° C.): 5799 mPa s | Viscosity of Topped Canadian Asphaltic Crude (8.01 wt. % DMS, 40° C.): 982 mPa s | Viscosity of Topped Canadian Asphaltic Crude (8.01 wt. % DMS, 60° C.): 275 mPa s | Viscosity of Topped Canadian Asphaltic Crude (8.01 wt. % DMS, 80° C.): 106 mPa s | Viscosity of Topped Canadian Asphaltic Crude (9.80 wt. % DMS, 20° C.): 2760 mPa s | Viscosity of Topped Canadian Asphaltic Crude (9.80 wt. % DMS, 40° C.): 571 mPa s | Viscosity of Topped Canadian Asphaltic Crude (9.80 wt. % DMS, 60° C.): 173 mPa s | Viscosity of Topped Canadian Asphaltic Crude (9.80 wt. % DMS, 80° C.): 73 mPa s | Viscosity of West African Waxy Crude (9.95 wt. % DMS, 20° C.): 44.70 mPa s | Viscosity of West African Waxy Crude (9.95 wt. % DMS, 20° C. after cooling from 80° C.): 30.61 mPa s | Viscosity of West African Waxy Crude (9.95 wt. % DMS, 40° C.): 13.03 mPa s | Viscosity of West African Waxy Crude (9.95 wt. % DMS, 60° C.): 7.58 mPa s | Viscosity of West African Waxy Crude (9.95 wt. % DMS, 80° C.): 5.04 mPa s | Viscosity of Middle Eastern Asphaltic Crude (10.1 wt. % DMS, 20° C.): 150.0 mPa s | Viscosity of Middle Eastern Asphaltic Crude (10.1 wt. % DMS, 20° C. after cooling from 80° C.): 150.5 mPa s | Viscosity of Middle Eastern Asphaltic Crude (10.1 wt. % DMS, 40° C.): 52.4 mPa s | Viscosity of Middle Eastern Asphaltic Crude (10.1 wt. % DMS, 60° C.): 24.5 mPa s | Viscosity of Middle Eastern Asphaltic Crude (10.1 wt. % DMS, 80° C.): 13.5 mPa s | Viscosity of Topped Canadian Asphaltic Crude (14.81 wt. % DMS, 5° C.): 1794 mPa s | Viscosity of Topped Canadian Asphaltic Crude (14.81 wt. % DMS, 10° C.): 1155 mPa s | Viscosity of Topped Canadian Asphaltic Crude (14.81 wt. % DMS, 20° C.): 548 mPa s | Viscosity of Topped Canadian Asphaltic Crude (14.81 wt. % DMS, 40° C.): 159 mPa s | Viscosity of Topped Canadian Asphaltic Crude (14.81 wt. % DMS, 60° C.): 64 mPa s | Viscosity of Topped Canadian Asphaltic Crude (14.81 wt. % DMS, 80° C.): 32 mPa s | Viscosity of West African Waxy Crude (15.13 wt. % DMS, 20° C.): 23.96 mPa s | Viscosity of West African Waxy Crude (15.13 wt. % DMS, 20° C. after cooling from 80° C.): 17.64 mPa s | Viscosity of West African Waxy Crude (15.13 wt. % DMS, 40° C.): 8.32 mPa s | Viscosity of West African Waxy Crude (15.13 wt. % DMS, 60° C.): 4.97 mPa s | Viscosity of West African Waxy Crude (15.13 wt. % DMS, 80° C.): 3.38 mPa s | Viscosity of Middle Eastern Asphaltic Crude (15.2 wt. % DMS, 20° C.): 59.4 mPa s | Viscosity of Middle Eastern Asphaltic Crude (15.2 wt. % DMS, 20° C. after cooling from 80° C.): 60.7 mPa s | Viscosity of Middle Eastern Asphaltic Crude (15.2 wt. % DMS, 40° C.): 25.2 mPa s | Viscosity of Middle Eastern Asphaltic Crude (15.2 wt. % DMS, 60° C.): 13.6 mPa s | Viscosity of Middle Eastern Asphaltic Crude (15.2 wt. % DMS, 80° C.): 8.2 mPa s | Viscosity of West African Waxy Crude (19.30 wt. % DMS, 20° C.): 15.26 mPa s | Viscosity of West African Waxy Crude (19.30 wt. % DMS, 20° C. after cooling from 80° C.): 12.06 mPa s | Viscosity of West African Waxy Crude (19.30 wt. % DMS, 40° C.): 6.25 mPa s | Viscosity of West African Waxy Crude (19.30 wt. % DMS, 60° C.): 4.05 mPa s | Viscosity of West African Waxy Crude (19.30 wt. % DMS, 80° C.): 2.92 mPa s | Viscosity of Topped Canadian Asphaltic Crude (19.78 wt. % DMS, 20° C.): 188 mPa s | Viscosity of Topped Canadian Asphaltic Crude (19.78 wt. % DMS, 40° C.): 69 mPa s | Viscosity of Topped Canadian Asphaltic Crude (19.78 wt. % DMS, 60° C.): 33 mPa s | Viscosity of Topped Canadian Asphaltic Crude (19.78 wt. % DMS, 80° C.): 19 mPa s | Viscosity of Middle Eastern Asphaltic Crude (20.1 wt. % DMS, 20° C.): 29.9 mPa s | Viscosity of Middle Eastern Asphaltic Crude (20.1 wt. % DMS, 20° C. after cooling from 80° C.): 31.0 mPa s | Viscosity of Middle Eastern Asphaltic Crude (20.1 wt. % DMS, 40° C.): 14.8 mPa s | Viscosity of Middle Eastern Asphaltic Crude (20.1 wt. % DMS, 60° C.): 8.7 mPa s | Viscosity of Middle Eastern Asphaltic Crude (20.1 wt. % DMS, 80° C.): 5.7 mPa s | Viscosity of Topped Canadian Asphaltic Crude (29.88 wt. % DMS, 5° C.): 113 mPa s | Viscosity of Topped Canadian Asphaltic Crude (29.88 wt. % DMS, 10° C.): 81 mPa s | Viscosity of Topped Canadian Asphaltic Crude (29.88 wt. % DMS, 20° C.): 51 mPa s | Viscosity of Topped Canadian Asphaltic Crude (29.88 wt. % DMS, 40° C.): 22 mPa s | Viscosity of Topped Canadian Asphaltic Crude (29.88 wt. % DMS, 60° C.): 13 mPa s | Viscosity of Topped Canadian Asphaltic Crude (29.88 wt. % DMS, 80° C.): 8 mPa s | Viscosity of Topped Canadian Asphaltic Crude (39.61 wt. % DMS, 5° C.): 23 mPa s | Viscosity of Topped Canadian Asphaltic Crude (39.61 wt. % DMS, 10° C.): 20 mPa s | Viscosity of Topped Canadian Asphaltic Crude (39.61 wt. % DMS, 20° C.): 14 mPa s | Viscosity of Topped Canadian Asphaltic Crude (39.61 wt. % DMS, 40° C.): 8 mPa s | Viscosity of Topped Canadian Asphaltic Crude (39.61 wt. % DMS, 60° C.): 6 mPa s | Viscosity of Topped Canadian Asphaltic Crude (39.61 wt. % DMS, 80° C.): 4 mPa s | lowering the viscosity of a crude oil, in words (all three crudes, particularly Canadian asphaltenic crude oil): effective for significantly lowering the viscosity of a crude oil
